Data published in ChEMBL document CHEMBL1129320, “The enediyne antibiotics” (J Med Chem, 1996).

Assays:
CAPAN-1 = test: Cytotoxic activity against Capan-1 pancreatic carcinoma tumor cell lines.; format: functional, cell-based; conditions: Homo sapiens
H322 = test: Cytotoxic activity against H-322 lung carcinoma tumor cell lines.; format: functional, cell-based; conditions: Homo sapiens, NCI-H322
HMEC = test: Cytotoxic activity against HMEC human mammary epithelial normal cell lines.; format: functional, cell-based
HNBM = test: Cytotoxic activity against HNBM bone marrow normal cell lines.; format: functional, cell-based; conditions: Homo sapiens
HT-29 = test: Cytotoxic activity against HT-29 Colon carcinoma tumor cell lines.; format: functional, cell-based; conditions: Homo sapiens
HL-60 = test: Cytotoxic activity against HL-60 promyelocytic leukemia tumor cell lines.; format: functional, cell-based; conditions: Homo sapiens
M14 = test: Cytotoxic activity against M-14 melanoma tumor cell lines.; format: functional, cell-based; conditions: Homo sapiens
M21 = test: Cytotoxic activity against M-21 melanoma tumor cell lines.; format: functional, cell-based; conditions: Homo sapiens
L1210 [1] = test: Cytotoxic activity against L-1210 mouse leukemia tumor cell lines.; format: functional, cell-based
MCF7 = test: Cytotoxic activity against MCF-7 breast carcinoma tumor cell lines.; format: functional, cell-based; conditions: Homo sapiens
OVCAR-3 = test: Cytotoxic activity against Ovcar-3 ovarian carcinoma tumor cell lines.; format: functional, cell-based; conditions: Homo sapiens
OVCAR-4 = test: Cytotoxic activity against Ovcar-4 ovarian carcinoma tumor cell lines.; format: functional, cell-based; conditions: Homo sapiens
RPMI-8226 = test: Cytotoxic activity against RPMI-8226 myeloma tumor cell lines.; format: functional, cell-based; conditions: Homo sapiens
SK-MEL-28 = test: Cytotoxic activity against SK-Mel-28 melanoma tumor cell lines.; format: functional, cell-based; conditions: Homo sapiens
U-251 = test: Cytotoxic activity against U-251 MG glioblastoma tumor cell lines.; format: functional, cell-based; conditions: Homo sapiens
TCAF = test: Cytotoxic activity against TCAF T-cell leukemia tumor cell lines.; format: functional, cell-based; conditions: Homo sapiens
TCAF-DAX = test: Cytotoxic activity against TCAF-DAX T-cell leukemia tumor cell lines.; format: functional, cell-based; conditions: Homo sapiens
UCLA P-3 = test: Cytotoxic activity against UCLA P-3 lung carcinoma tumor cell lines.; format: functional, cell-based; conditions: Homo sapiens
P388 [2] = test: Cytotoxic activity against P-388 mouse leukemia cell lines.; format: functional, cell-based
U-87 MG = test: Cytotoxic activity against […] astrocytoma tumor cell lines.; format: functional, cell-based, U-87MG ATCC; conditions: Homo sapiens
NHDF = test: Cytotoxic activity against NHDF normal human dermal fibroblast cell lines.; format: functional, cell-based
[3] = Half life at 37 degree Centigrade; format: ADME
[4] = Half life at 55 degree Centigrade; format: ADME
[5] = Half life at 110 degree Centigrade; format: ADME
B16 = test: Optimum dose against solid neoplasm B-16 melanoma; format: functional, Mus musculus
L1210 [6] = test: Optimum dose against murine L1210 leukemia; format: functional, Mus musculus
P388 [7] = test: Optimum dose against P388 murine tumor cell line; format: functional, Mus musculus
Colon 26 (Mus musculus) = test: Optimum dose against solid neoplasm colon 26

O=C(OCCS(=O)(=O)c1ccccc1)N1c2ccc(OCCO)cc2[C@@]23O[C@]24CCC[C@H]3C#C/C=C\C#C[C@H]14
IC50 (CAPAN-1): 3.1 nM
IC50 (H322): 390 nM
IC50 (HMEC): 6300 nM
IC50 (HNBM): 50000 nM
IC50 (HT-29): 1600 nM
IC50 (HL-60): 0.036 nM
IC50 (M14): 1600 nM
IC50 (M21): 1600 nM
IC50 (L1210 [1]): 1.3 nM
IC50 (MCF7): 780 nM
IC50 (OVCAR-3): 780 nM
IC50 (OVCAR-4): 780 nM
IC50 (RPMI-8226): 7.7 nM
IC50 (SK-MEL-28): 3100 nM
IC50 (U-251): 390 nM
IC50 (TCAF): 1.1 nM
IC50 (TCAF-DAX): 1.7 nM
IC50 (UCLA P-3): 98 nM
IC50 (P388 [2]): 4.6 nM
IC50 (U-87 MG): 780 nM
IC50 (NHDF): 5000 nM

CNC1C(O[C@H]2C#C/C=C\C#C[C@]3(O)CC(=O)C(NC(=O)OC)[C@]24SCCC=C34)OC(C)C(O)C1O (stereo partly drawn)
T1/2 [3]: 4.5 s

CC1=C(C)C(=O)C2=C(C#CCCCC(=O)C#C2)C1=O
half-life [4]: 0.533 h

Cc1c(C)c(C(=O)OC(C)(C)C)c2c(c1C(=O)OC(C)(C)C)C#CCCCC(O)C#C2 (stereo not drawn)
half-life [5]: 74 h

CC1=C(C)C(=O)C2=C(C#CCCCC(O)C#C2)C1=O (stereo not drawn)
half-life [4]: 2.6 h

CCNC1COC(OC2C(OC3C#C/C=C\C#C[C@]4(O)CC(=O)C(NC(=O)OC)=C3/C4=C/CSSSC)OC(C)C(NOC3CC(O)C(SC(=O)c4c(C)c(I)c(O)c(OC)c4OC)C(C)O3)C2O)CC1OC (stereo partly drawn) [CALICHEAMICIN ALPHA1 I]
OD (B16): 5 µg/kg
OD (L1210 [6]): 5 µg/kg
OD (P388 [7]): 5 µg/kg
OD (Colon 26 (Mus musculus)): 5 µg/kg

COC(=O)NC1=C2/C(=C/CSSSC)[C@](O)(C#C/C=C\C#CC2OC2OC(C)C(NOC3CC(O)C(SC(=O)c4c(C)c(I)c(OC5OC(C)C(O)C(OC)C5O)c(OC)c4OC)C(C)O3)C(O)C2O)CC1=O (stereo partly drawn) [CALICHEAMICIN ALPHA3 I]
OD (B16): 5 µg/kg
OD (L1210 [6]): 5 µg/kg
OD (P388 [7]): 5 µg/kg
OD (Colon 26 (Mus musculus)): 5 µg/kg

COC(=O)NC1=C2/C(=C/CSSSC)[C@](O)(C#C/C=C\C#CC2OC2OC(C)C(NOC3CC(O)C(SC(=O)c4c(C)c(Br)c(OC5OC(C)C(O)C(OC)C5O)c(OC)c4OC)C(C)O3)C(O)C2OC2CC(OC)C(NC(C)C)CO2)CC1=O (stereo partly drawn) [CALICHEAMICIN BETA1 BR]
OD (B16): 5 µg/kg
OD (L1210 [6]): 5 µg/kg
OD (P388 [7]): 5 µg/kg
OD (Colon 26 (Mus musculus)): 5 µg/kg

COC(=O)NC1=C2/C(=C/CSSSC)[C@](O)(C#C/C=C\C#CC2OC2OC(C)C(NOC3CC(O)C(SC(=O)c4c(C)c(I)c(OC5OC(C)C(O)C(OC)C5O)c(OC)c4OC)C(C)O3)C(O)C2OC2CC(OC)C(NC(C)C)CO2)CC1=O (stereo partly drawn) [CALICHEAMICIN BETA1 I]
OD (B16): 5 µg/kg
OD (L1210 [6]): 5 µg/kg
OD (P388 [7]): 5 µg/kg
OD (Colon 26 (Mus musculus)): 5 µg/kg

CNC1COC(OC2C(OC3C#C/C=C\C#C[C@]4(O)CC(=O)C(NC(=O)OC)=C3/C4=C/CSSSC)OC(C)C(NOC3CC(O)C(SC(=O)c4c(C)c(I)c(OC5OC(C)C(O)C(OC)C5O)c(OC)c4OC)C(C)O3)C2O)CC1OC (stereo partly drawn) [CALICHEAMICIN DELTA1 I]
OD (B16): 5 µg/kg
OD (L1210 [6]): 5 µg/kg
OD (P388 [7]): 5 µg/kg
OD (Colon 26 (Mus musculus)): 5 µg/kg

CCNC1COC(OC2C(OC3C#C/C=C\C#C[C@]4(O)CC(=O)C(NC(=O)OC)=C3/C4=C/CSSSC)OC(C)C(NOC3CC(O)C(SC(=O)c4c(C)c(Br)c(OC5OC(C)C(O)C(OC)C5O)c(OC)c4OC)C(C)O3)C2O)CC1OC (stereo partly drawn) [CALICHEAMICIN GAMMA1 BR]
OD (B16): 5 µg/kg
OD (L1210 [6]): 5 µg/kg
OD (P388 [7]): 5 µg/kg
OD (Colon 26 (Mus musculus)): 5 µg/kg

CCN[C@H]1CO[C@@H](O[C@H]2[C@H](O[C@H]3C#C/C=C/C#C[C@@]4(O)CC(=O)C(NC(=O)OC)=C3/C4=C\CSSSC)O[C@H](C)[C@@H](NO[C@H]3C[C@H](O)[C@H](SC(=O)c4c(C)c(I)c(O[C@@H]5O[C@@H](C)[C@H](O)[C@@H](OC)[C@H]5O)c(OC)c4OC)[C@@H](C)O3)[C@@H]2O)C[C@@H]1OC [CALICHEAMICIN GAMMA1 I]
OD (B16): 5 µg/kg
OD (L1210 [6]): 5 µg/kg
OD (P388 [7]): 5 µg/kg
OD (Colon 26 (Mus musculus)): 5 µg/kg
